Data reported in the supplement of paper PMC10307832.

Columns and labels:
Assay in all cases: relative viability (nuclei count vs DMSO), 5 days (fraction); higher = more cells survive
[1] = compound: CC(O)(CS(=O)(=O)c1ccc(F)cc1)C(=O)Nc1ccc(C#N)c(C(F)(F)F)c1 [Bicalutamide] + CCNC(=O)c1noc(-c2cc(C(C)C)c(O)cc2O)c1-c1ccc(CN2CCOCC2)cc1 [Luminespib] (partner 0.01 µM)
How it was run: (§1)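 Five library-drug doses in √10 steps were combined with a fixed anchor-drug dose, or a single drug was given alone, by pin tool to lung cancer cell lines in 1536-well plates the day after seeding. Nuclei were stained and counted after 5 days. Relative viability is the nuclei count in treated wells over that in vehicle wells, taken as the median of duplicate plates.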

[2] = compound: C(C(=O)C(=O)O)Br [Bromopyruvate] + N=C(N)NC(=N)NCCc1ccccc1 [Phenformin] (partner 250 µM)
How it was run: as §1

Bromopyruvate + OSI-027 = compound: C(C(=O)C(=O)O)Br [Bromopyruvate] + COc1cccc2cc(-c3nc([C@H]4CC[C@H](C(=O)O)CC4)n4ncnc(N)c34)[nH]c12 [OSI-027] (partner 0.5 µM)
How it was run: as §1

[3] = compound: C(C(=O)C(=O)O)Br [Bromopyruvate] + C[C@]1(O)C[C@@H](c2nc(-c3ccc4ccc(-c5ccccc5)nc4c3)c3c(N)nccn32)C1 [Linsitinib] (partner 1 µM)
How it was run: as §1

Row | Cell Line | relative viability ([1]; first compound 0.08 µM) | relative viability ([1]; first compound 0.253 µM) | relative viability ([1]; first compound 0.8 µM) | relative viability ([1]; first compound 2.53 µM) | relative viability ([2]; first compound 1 µM) | relative viability ([2]; first compound 3.162 µM) | relative viability ([2]; first compound 10 µM) | relative viability ([2]; first compound 31.62 µM) | relative viability ([2]; first compound 100 µM) | relative viability (Bromopyruvate + OSI-027; first compound 1 µM) | relative viability (Bromopyruvate + OSI-027; first compound 3.162 µM) | relative viability (Bromopyruvate + OSI-027; first compound 10 µM) | relative viability (Bromopyruvate + OSI-027; first compound 31.62 µM) | relative viability (Bromopyruvate + OSI-027; first compound 100 µM) | relative viability ([3]; first compound 1 µM) | relative viability ([3]; first compound 3.162 µM) | relative viability ([3]; first compound 10 µM) | relative viability ([3]; first compound 31.62 µM) | relative viability ([3]; first compound 100 µM)
1 | LK-2 | 0.161 | 0.167 | 0.175 | 0.21 | 0.411 | 0.673 | 0.432 | 0.57 | 0.496 | 0.235 | 0.2 | 0.21 | 0.223 | 0.218 | 0.474 | 0.674 | 0.541 | 0.509 | 0.524
2 | NCI-H1437 | 1.17 | 1.15 | 1.1 | 1.05 | 0.339 | 0.293 | 0.398 | 0.281 | 0.288 | 0.921 | 0.861 | 0.943 | 0.909 | 0.847 | 1.02 | 1.03 | 1.22 | 1.02 | 1.17
3 | COR-L23 | 0.718 | 0.699 | 0.764 | 0.649 | 0.433 | 0.435 | 0.459 | 0.411 | 0.227 | 0.817 | 0.879 | 0.977 | 0.705 | 0.401 | 0.906 | 0.843 | 1 | 0.889 | 0.451
4 | ABC-1 | 0.558 | 0.296 | 0.749 | 0.596 | 0.24 | 0.262 | 0.271 | 0.262 | 0.239 | 0.425 | 0.471 | 0.513 | 0.521 | 0.548 | 0.767 | 1.05 |  | 0.693 | 0.753
5 | SW 900 | 0.175 | 0.153 | 0.172 | 0.17 | 0.645 | 0.55 | 0.755 | 0.706 | 0.627 | 0.589 | 0.543 | 0.558 | 0.562 | 0.526 |  |  |  |  | 
6 | PC-14 | 0.16 | 0.148 | 0.198 | 0.137 | 0.754 | 0.737 | 0.776 | 0.546 | 0.516 | 0.788 | 0.837 | 1.37 | 0.825 | 0.841 | 1.03 | 1.01 | 0.938 | 0.944 | 1.04
7 | NCI-H1648 |  |  |  |  |  |  |  |  |  | 0.263 | 0.263 | 0.251 | 0.25 | 0.259 |  |  |  |  | 
8 | A549 |  |  |  |  | 0.17 | 0.16 | 0.0997 | 0.234 | 0.22 |  |  |  |  |  |  | 0.607 | 0.754 | 0.687 | 0.696
9 | A-427 | 1.02 | 0.761 | 1 | 0.763 | 0.417 | 0.353 | 0.25 | 0.335 | 0.261 | 0.562 | 0.466 | 0.418 | 0.42 | 0.422 | 1.05 | 1.05 | 1.03 | 1.15 | 1.14
10 | NCI-H1792 | 0.411 |  | 0.571 | 0.236 | 0.227 | 0.345 |  | 0.386 | 0.252 | 0.798 | 0.79 | 0.782 |  | 0.649 | 0.538 | 0.533 | 0.718 | 0.522 | 0.456
11 | LCLC-97TM1 | 0.793 | 0.659 | 0.941 | 0.829 | 0.411 | 0.397 | 0.359 | 0.439 | 0.415 | 0.53 | 0.482 | 0.735 | 0.522 | 0.51 |  |  | 0.22 | 0.198 | 0.162
12 | NCI-H1703 |  |  |  |  |  |  |  |  |  |  |  |  |  |  | 0.602 | 1.08 | 0.709 | 0.678 | 0.655
13 | LCLC-103H | 1.02 | 0.906 | 1.04 | 0.928 | 0.343 | 0.338 | 0.371 | 0.362 | 0.365 | 0.408 | 0.487 | 0.528 | 0.451 | 0.494 | 1.28 | 1.07 | 1 | 1.08 | 1.14
14 | RERF-LC-KJ | 1.24 | 1.2 | 1.36 | 1.2 | 0.4 | 0.438 | 0.514 | 0.429 | 0.416 | 0.614 | 0.607 | 0.6 | 0.516 | 0.54 | 0.885 | 0.935 | 0.952 | 0.906 | 0.933
15 | BEN | 0.416 | 0.344 | 0.541 | 0.39 | 0.279 | 0.265 | 0.266 | 0.262 | 0.279 | 0.307 | 0.296 | 0.293 | 0.277 | 0.298 | 0.97 | 0.869 | 0.932 | 0.929 | 0.936
16 | ChaGo-K-1 | 0.704 | 0.717 | 0.513 | 0.622 | 0.581 | 0.531 | 0.511 | 0.473 | 0.411 | 0.715 | 0.521 | 0.629 | 0.578 | 0.493 |  |  |  |  | 
17 | Calu-6 |  |  |  |  |  |  |  |  |  |  |  |  |  |  | 0.889 | 1.04 | 1.09 | 0.926 | 0.958
18 | HCC-366 |  |  |  |  | 0.592 | 0.649 | 0.635 | 0.597 | 0.648 | 0.836 | 1.05 | 0.812 | 0.979 | 1.01 | 0.615 | 0.848 | 0.765 | 0.769 | 0.54
19 | NCI-H2342 | 0.682 | 0.752 | 0.746 | 0.729 | 0.574 | 0.645 | 0.613 | 0.479 | 0.488 | 0.552 | 0.603 | 0.542 | 0.545 | 0.497 |  |  |  |  | 
20 | EBC-1 |  |  |  |  |  |  |  |  |  |  |  |  |  |  | 0.78 | 0.963 | 0.994 | 0.905 | 0.93
21 | NCI-H1299 |  |  |  |  |  |  |  |  |  |  |  |  |  |  | 0.994 | 1.01 | 1.04 | 1.02 | 0.968
22 | NCI-H522 | 1.07 | 1.14 | 1.45 | 1.17 | 0.599 | 0.654 | 0.641 | 0.679 | 0.574 | 0.74 | 0.715 | 0.684 | 0.718 | 0.706 |  |  |  |  | 
23 | IA-LM |  |  |  |  |  |  |  |  |  |  |  |  |  |  | 0.534 | 0.576 | 0.675 | 0.674 | 0.674
24 | NCI-H2170 | 0.689 | 0.527 | 0.588 | 0.591 | 0.414 | 0.487 | 0.435 | 0.41 | 0.379 | 0.469 | 0.686 | 0.769 | 0.761 | 0.743 |  |  |  |  | 
